# Measured values taken from US6894063B2, “Substituted urea neuropeptide Y Y5 Receptor antagonists” (Schering Corporation, priority 2000, dated 2005).
# Tested on: D-Trp34-NPY stimulated food intake
# Experiment: Screening for Y5 antagonist activity in vivo: D-Trp34-NPY stimulated food intake in rats
# Set-up: species or system Long-Evans or Sprague-Dawley rats
# Conditions: rat, oral doses 0.1, 0.3, 1 and 3 mg/kg one hour before icv D-Trp34-NPY; food consumption monitored at 60, 120 and 240 min
# Procedure: Method for Screening Compound 14 of Example 14 for Y5 Antagonist Activity In Vivo
# Adult male Long-Evans or Sprague-Dawley rats (200-250 g, Charles River, Mass.) were maintained in individual cages at 22° C. on a 12 hr light/12 hr dark cycle with lights on at 0400. Rats had free access to food (Teklad Lab Rodent Chow, Bartonville, Ill.) and water. All studies were conducted in an AAALAC accredited facility following protocols approved by the Animal Care and Use Committee of the Schering-Plough Research Institute. The procedures were performed in accordance with the principles and guidelines established by the NIH for the care and use of laboratory animals.
# Rats were anesthetized by intramuscular injection of a mixture of ketamine and xylazine (100 and 10 mg/kg, respectively). A 22 gauge stainless steel cannula was stereotaxically implanted into the lateral ventricle using the following coordinates: 1 mm posterior to bregma, 1.5 mm lateral to midline, 3.6 mm ventral to dura. After a three week recovery period, all animals were tested for correct cannula placement by intracerebroventricular (icv) infusion of human NPY ([…]). […] Food consumption was monitored at 60, 120 and 240 min after icv infusion of peptides. Differences in food intake between groups were determined by analysis of variance followed by Dunnett's multiple comparison test.
structure (smiles),measurement,value
CN(C(=O)Nc1ccc(-c2cc(F)cc(F)c2)cc1)C1CCN(c2nccs2)CC1 [Example 14],"ID50, inhibition of D-Trp34-NPY stimulated food intake",0.5 mg/kg
